The record followed here is patent publication US20250243194A1, “ANTAGONIST OF ADENOSINE RECEPTORS” (AdoRx Therapeutics Limited, priority 2022, published 2025).

SMILES strings stand for the structures.

Usually IC50 stands for the point on the concentration scale where inhibition reaches its midpoint. High values mean a need for much substance, low ones inhibition by little substance. As a reminder, the Ki is the equilibrium dissociation constant of an inhibitor or competing ligand from its target.

The subject of assay [1] is immature monocyte-derived dendritic cells (MoDC). Put plainly: MoDC pCREB assay. Type of assay: cell-based. As to conditions: Homo sapiens, Dendritic cell, CD209+/CD86-low cells, 1 μM NECA, 20 μM rolipram, largely specific to A2B. The procedure: Monocytes are isolated from human whole blood using CD14 microbeads (Miltenyi Biotec 130-050-201) and differentiated to immature monocyte-derived dendritic cells (MoDC) by culture for 5 days in Mo-DC Differentiation Medium (Miltenyi Biotec 130-094-812). MoDCs are seeded into fresh medium into U bottomed 96 well culture plates and pre-incubated at 37° C. with serial dilutions of A2A/B antagonists for 15 min. At the same time the cells are co-incubated with the phosphodiesterase inhibitor rolipram (final concentration of 20 μM) to amplify the subsequent pCREB response. Adenosine receptor agonist NECA is then added at 1 μM final concentration, leading to an increase in CREB phosphorylation. Following a 45 min incubation at 37° C., the cells are fixed, permeabilized and stained with directly conjugated fluorescent antibodies to phospho-CREB (Alexa Fluor 488), CD209 (PerCP-Cy5.5) and CD86 (APC). Samples are analysed by FACS to measure fluorescence in corresponding channels, and also forward and Side scatter. The population of CD209+/CD86-low cells corresponding to immature dendritic cells is gated for analysis of pCREB levels.
Approximately 5% of the analysed cells are positive for detection of pCREB in the absence of agonist stimulation, representing the background signalling of all pathways upstream of CREB. Following NECA stimulation this is increased to ˜80% pCREB+ve, and this increase is essentially fully reversible by A2B or dual A2A/B antagonists.
IC50 is represented as the point of inflection of a sigmoidal curve

Assay [2] deals with human Adenosine A1 receptor (Homo sapiens (Human), UniProt P30542). Put plainly: Adenosine receptor TR-FRET binding assay (A1). As to conditions: inhibition of binding of 100 nM CA200645; CHO cell membranes; Ki from IC50 by Cheng and Prusoff. The method, then: (§1) All FRET binding experiments were conducted at room temperature in white 384-well plates, in assay binding buffer containing 1× LabMed (Cisbio, France), 100 μg/mL saponin, 1% DMSO and 0.02% pluronic acid. Binding of the fluorescently labelled Adenosine receptor antagonist XAC (CA200645, FRET acceptor) to terbium-labelled A1, A2a, A2b and A3 adenosine receptors (FRET donors) was detected by time-resolved FRET due to the close proximity of the donor and acceptor in a binding event. To investigate the ability of unlabelled test compounds to bind to Adenosine A1, A2a, A2b and A3 receptors, dose response curves were constructed that determined the ability of a range of concentrations to inhibit the binding of 30 nM CA200645 to the A2b receptor and 100 nM CA200645 to the A1, A2a, and A3 receptor.
(§2) Serial dilution (1:3 dilutions) of test compounds in neat DMSO and transfer of a 400 nL sample of test compound into the assay plate was carried out using the Mosquito (TTP Labtech, UK). The compound samples were incubated for 2 hours at room temperature with a fixed concentration of CA200645 defined for each receptor (see above) and CHO cell membranes containing the human Adenosine A1 (0.5 μg/well), A2a (0.3 μg/well), A2b (1 μg/well) or A3 (1 μg/well) receptor in 40 μL of assay buffer. Total and non-specific binding of CA200645 was determined in the absence and presence of 10 μM XAC, respectively. Following 2 hours incubation, the level of CA200645 binding was detected on a Pherastar FSX (BMG Labtech, Germany) using standard TR-FRET settings. The terbium donor was excited with three laser flashes at a wavelength of 337 nm, and donor and acceptor emission was detected at 620 nm and 665 nm wavelengths, respectively. FRET ratios were obtained by multiplying the acceptor/donor ratio value by 10,000. Specific binding was determined by subtracting the non-specific binding FRET ratio from the total binding FRET ratio. Compound IC50 curves were analysed using GraphPad Prism 7.0 (GraphPad, USA) and Ki affinity values were determined from the obtained IC50 values using the method of Cheng and Prusoff.

The test system of assay [3] is CD8+ T cells in human whole blood. Put plainly: Measurement of pCREB in CD8+ T cells in human whole blood. Type of assay: cell-based. As to conditions: T-cell, 3 μM NECA, rolipram, FACS. The procedure:
Heparinised human whole blood was pre-incubated at 37° C. with serial dilutions of A2a antagonists for 20 min. and the phosphodiesterase inhibitor rolipram to amplify the pCREB response. The adenosine receptor agonist NECA is then added at a final concentration of 3 μM and following a 60 min incubation the blood is fixed and red blood cells lysed. White blood cells are isolated, permeabilized and stained with directly conjugated fluorescent antibodies to phospho-CREB (Alexa Fluor 488) and CD8 (Alexa Fluor 647) and the level of phospho-CREB in CD8+ T cells is measured by FACS using a BD Accuri C6 Flow Cytometer.

Assay [4] concerns the target human Adenosine A2a receptor (Homo sapiens (Human), UniProt P29274). Put plainly: Adenosine receptor TR-FRET binding assay (A2a). As to conditions: inhibition of binding of 100 nM CA200645; CHO cell membranes; Ki from IC50 by Cheng and Prusoff. The method, then: as §1, §2
The target of assay [5] is human Adenosine A2b receptor (Homo sapiens (Human), UniProt P29275). Put plainly: Adenosine receptor TR-FRET binding assay (A2b). To be noted: inhibition of binding of 30 nM CA200645; CHO cell membranes; Ki from IC50 by Cheng and Prusoff. The method, then: as §1, §2
A general note: TR-FRET usually uses a lanthanide donor and a delayed reading to cut background.

Assay [6] has as its target human Adenosine A3 receptor (Homo sapiens (Human), UniProt P0DMS8). Description: Adenosine receptor TR-FRET binding assay (A3). As to conditions: inhibition of binding of 100 nM CA200645; CHO cell membranes; Ki from IC50 by Cheng and Prusoff. The procedure:
as §1, §2

Sequence of human Adenosine A3 receptor (P0DMS8 whole entry): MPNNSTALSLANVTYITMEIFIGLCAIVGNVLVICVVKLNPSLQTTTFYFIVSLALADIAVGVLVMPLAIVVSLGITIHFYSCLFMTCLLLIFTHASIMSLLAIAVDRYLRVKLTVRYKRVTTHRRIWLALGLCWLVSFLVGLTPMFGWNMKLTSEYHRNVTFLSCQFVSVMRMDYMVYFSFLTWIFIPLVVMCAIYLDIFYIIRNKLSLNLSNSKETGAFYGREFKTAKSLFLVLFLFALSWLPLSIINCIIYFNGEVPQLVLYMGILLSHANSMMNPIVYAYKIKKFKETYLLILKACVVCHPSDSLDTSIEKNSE
Sequence of human Adenosine A1 receptor (P30542 whole entry): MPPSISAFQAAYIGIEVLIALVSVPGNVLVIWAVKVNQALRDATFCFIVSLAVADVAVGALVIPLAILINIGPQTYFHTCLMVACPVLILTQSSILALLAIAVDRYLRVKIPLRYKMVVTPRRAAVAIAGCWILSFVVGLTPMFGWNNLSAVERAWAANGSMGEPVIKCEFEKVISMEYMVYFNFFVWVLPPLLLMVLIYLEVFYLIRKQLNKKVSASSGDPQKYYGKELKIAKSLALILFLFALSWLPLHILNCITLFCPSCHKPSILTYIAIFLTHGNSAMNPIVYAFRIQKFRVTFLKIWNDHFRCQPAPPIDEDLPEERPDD
Sequence of human Adenosine A2b receptor (P29275 whole entry): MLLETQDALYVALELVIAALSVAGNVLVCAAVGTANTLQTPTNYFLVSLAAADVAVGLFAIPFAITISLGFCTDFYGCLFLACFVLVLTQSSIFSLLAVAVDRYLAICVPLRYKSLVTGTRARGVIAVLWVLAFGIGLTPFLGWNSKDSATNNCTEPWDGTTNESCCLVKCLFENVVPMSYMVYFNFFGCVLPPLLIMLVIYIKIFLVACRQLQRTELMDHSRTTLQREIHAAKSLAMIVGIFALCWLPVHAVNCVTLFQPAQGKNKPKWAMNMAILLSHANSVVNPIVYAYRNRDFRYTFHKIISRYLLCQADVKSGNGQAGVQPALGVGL
Sequence of human Adenosine A2a receptor (P29274 whole entry): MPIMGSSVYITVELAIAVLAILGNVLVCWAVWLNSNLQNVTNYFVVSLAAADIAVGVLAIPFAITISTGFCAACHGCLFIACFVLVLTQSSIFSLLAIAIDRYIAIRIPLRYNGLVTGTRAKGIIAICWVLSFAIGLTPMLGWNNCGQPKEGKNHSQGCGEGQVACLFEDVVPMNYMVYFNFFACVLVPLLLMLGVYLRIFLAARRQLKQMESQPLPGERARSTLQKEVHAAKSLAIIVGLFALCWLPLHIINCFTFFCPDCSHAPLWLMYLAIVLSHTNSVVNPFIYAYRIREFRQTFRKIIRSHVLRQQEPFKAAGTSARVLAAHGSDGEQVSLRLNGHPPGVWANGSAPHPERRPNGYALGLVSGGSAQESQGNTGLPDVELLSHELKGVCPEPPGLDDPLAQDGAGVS

For the molecule `Cc1ncnc2ccc(-c3sc(NC(=O)N4CCC(N5CCNCC5)CC4)nc3-c3cccc(C#N)c3)cc12` [Example 3, N-[4-(3-Cyanophenyl)-5-(4-methylquinazolin-6-yl)thiazol-2-yl]-4-piperazin-1-yl-piperidine-1-carboxamide], the values for the IC50 in assay [1] and in assay [3] were 6 nM and 70 nM, respectively. The values for the inhibition constant Ki in assay [2], in assay [4] and in assay [5] were 554 nM, 2.26 nM and 7.7 nM, respectively.

For the molecule `Cc1cnc2ccc(-c3sc(NC(=O)N4CC5(COC5)C4)nc3-c3cccc(C#N)c3)cn12` [Example 22, N-[4-(3-Cyanophenyl)-5-(3-methylimidazo[1,2-a]pyridin-6-yl)thiazol-2-yl]-2-oxa-6-azaspiro[3.3]heptane-6-carboxamide], the Ki in assay [2] is 0.4 nM; in assay [4] it was 0.15 nM; in assay [6] it was 2550 nM; in assay [5], 1.4 nM.

Turning to `Cc1cc(-c2sc(NC(=O)N3CC4(COC4)C3)nc2-c2cccc(C#N)c2)c2[nH]ncc2n1` [Example 23, N-[4-(3-Cyanophenyl)-5-(5-methyl-1H-pyrazolo[4,3-b]pyridin-7-yl)thiazol-2-yl]-2-oxa-6-azaspiro[3.3]heptane-6-carboxamide], the Ki in assay [2] was 467 nM; in assay [4], 6.56 nM; in assay [6], 126 nM; in assay [5], 1.6 nM.

In the case of `N#Cc1cccc(-c2nc(NC(=O)N3CC4(COC4)C3)sc2-c2ccnc3[nH]ccc23)c1` [Example 2.4, N-[4-(3-Cyanophenyl)-5-(1H-pyrrolo[2,3-b]pyridin-4-yl)thiazol-2-yl]-2-oxa-6-azaspiro[3.3]heptane-6-carboxamide], the Ki in assay [2] amounted to 1 nM; in assay [4], 1 nM; in assay [6], 290 nM; in assay [5], 0.5 nM.

Turning to `Cc1cc(-c2sc(NC(=O)N3CC4(COC4)C3)nc2-c2cccc(C#N)c2)cc2[nH]nnc12` [Example 2.3, N-[4-(3-Cyanophenyl)-5-(7-methyl-3H-benzotriazol-5-yl)thiazol-2-yl]-2-oxa-6-azaspiro[3.3]heptane-6-carboxamide], the Ki in assay [2] amounted to 1 nM; in assay [4], 1.37 nM; in assay [6] it was 466 nM; in assay [5], 1.7 nM.

In the case of `Cc1cc(-c2sc(NC(=O)N3CC4(COC4)C3)nc2-c2cccc(C#N)c2)cc2cn[nH]c12` [Example 27, N-[4-(3-Cyanophenyl)-5-(7-methyl-1H-indazol-5-yl)thiazol-2-yl]-2-oxa-6-azaspiro[3.3]heptane-6-carboxamide], the Ki in assay [2] turned out to be 0.5 nM; in assay [4], 0.08 nM; in assay [6], 907 nM; in assay [5] it was 2.9 nM.

`N#Cc1cccc(-c2nc(NC(=O)N3CC4(COC4)C3)sc2-c2c[nH]c3ncccc23)c1` [Example 17, N-[4-(3-Cyanophenyl)-5-(1H-pyrrolo[2,3-b]pyridin-3-yl)thiazol-2-yl]-2-oxa-6-azaspiro[3.3]heptane-6-carboxamide]: the Ki worked out at 1 nM in assay [2], 3.11 nM in assay [4], 305 nM in assay [6] and 0.8 nM in assay [5].

As to `Cc1ncnc2ccc(-c3sc(NC(=O)N4CCC5(CC4)COCCN5)nc3-c3cccc(C#N)c3)cc12` [Example 2, N-[4-(3-Cyanophenyl)-5-(4-methylquinazolin-6-yl)thiazol-2-yl]-4-oxa-1,9-diazaspiro[5.5]undecane-9-carboxamide], the values for the IC50 in assay [1] and in assay [3] were 3 nM and 20 nM, respectively. In addition, the Ki was 70 nM in assay [2], 0.32 nM in assay [4] and 2.8 nM in assay [5].

Consider `Cc1cc(-c2sc(NC(=O)N3CC4(COC4)C3)nc2-c2cccc(C#N)c2)cc2cn(C)nc12` [Example 28, N-[4-(3-Cyanophenyl)-5-(2,7-dimethylindazol-5-yl)thiazol-2-yl]-2-oxa-6-azaspiro[3.3]heptane-6-carboxamide], for which the Ki in assay [2] was determined as 21 nM; in assay [4], 8.4 nM; in assay [6], 628 nM; in assay [5], 6.7 nM.

Take `N#Cc1cccc(-c2nc(NC(=O)N3CC4(COC4)C3)sc2-c2ccc3ncoc3c2)c1` [Example 35, N-[5-(1,3-benzoxazol-6-yl)-4-(3-cyanophenyl)thiazol-2-yl]-2-oxa-6-azaspiro[3.3]heptane-6-carboxamide]: the Ki in assay [2] worked out at 1.6 nM; in assay [4], 1.4 nM; in assay [6], 130 nM; in assay [5], 1.6 nM.

Turning to `Cc1cc(-c2sc(NC(=O)N3CC4(COC4)C3)nc2-c2cccc(C#N)c2)cc2[nH]ncc12` [Example 2.2, N-[4-(3-Cyanophenyl)-5-(4-methyl-1H-indazol-6-yl)thiazol-2-yl]-2-oxa-6-azaspiro[3.3]heptane-6-carboxamide], the Ki in assay [2] came out at 2 nM; in assay [4], 2.69 nM; in assay [6] it was 820 nM; in assay [5], 3.3 nM.

For `Cc1cc(-c2sc(NC(=O)N3CC4(COC4)C3)nc2-c2cccc(C#N)c2)c2cn[nH]c2n1` [Example 2.5, N-[4-(3-Cyanophenyl)-5-(6-methyl-1H-pyrazolo[3,4-b]pyridin-4-yl)thiazol-2-yl]-2-oxa-6-azaspiro[3.3]heptane-6-carboxamide], the Ki in assay [2] was found to be 14 nM; in assay [4], 3.3 nM; in assay [6], 2600 nM; in assay [5] it was 0.9 nM.

As to `Cn1ccc2c(-c3sc(NC(=O)N4CC5(COC5)C4)nc3-c3cccc(C#N)c3)ccnc21` [Example 21, N-[4-(3-Cyanophenyl)-5-(1-methylpyrrolo[2,3-b]pyridin-4-yl)thiazol-2-yl]-2-oxa-6-azaspiro[3.3]heptane-6-carboxamide], the Ki came out at 4 nM in assay [2], 8.33 nM in assay [4], 421 nM in assay [6] and 2.6 nM in assay [5].

In the case of `Cc1cc(-c2sc(NC(=O)N3CC4(COC4)C3)nc2-c2cccc(C#N)c2)cnc1-n1nccn1` [Example 32, N-[4-(3-Cyanophenyl)-5-[5-methyl-6-(triazol-2-yl)-3-pyridyl]thiazol-2-yl]-2-oxa-6-azaspiro[3.3]heptane-6-carboxamide], the Ki came out at 272 nM in assay [2], 8.87 nM in assay [4], 103 nM in assay [6] and 136 nM in assay [5].
